Experimental data as given in patent publication US12729377B2, “RNAi agents and compositions for inhibiting expression of angiopoietin-like 3 (ANGPTL3), and methods of use” (Arrowhead Pharmaceuticals, Inc., priority 2017, dated 2026).
In the oligonucleotide strings, read from the 5' end, every base follows the letter of its sugar. An asterisk marks phosphorothioate; unmarked linkages are phosphodiester. Other units and linkages are bracketed, terminal groups are in braces. A string of capitals states the bases alone. {NAG37} = tridentate N-acetyl-galactosamine targeting ligand, structure (NAG37)s; [invAb] = inverted abasic unit; m = 2'-O-methyl; f = 2'-fluoro

How the values were obtained:
ANGPTL3 gene [1] = experiment: Example 10: serum total cholesterol in mice; type: in vivo; settings: 0.5 mg/kg single SC injection day 1, female C57bl/6 mice, n=3, ratio to D5W control
Experimental: (§1) To assess the in vivo activity of further ANGPTL3 RNAi agents that are designed to target position 304 on the ANGPTL3 gene, six- to eight-week-old female C57bl/6 mice were used. Pre-dose serum samples were taken at day −1 after a four hour fast. At day 1, each mouse was given a single subcutaneous administration of 200 μl containing 0.5 mg/kg (mpk) of an ANGPTL3 RNAi agent in D5W (dextrose in 5% water), or control (D5W) with no RNAi agent, according to the dosing groups recited in Table 47.
Each of the RNAi agents included a modified sequence and an N-acetyl-galactosamine-containing targeting ligand conjugated to the 5′ terminal end of the sense strand. (See Tables 3, 4, and 5 for modified sequences and targeting ligand structures). As noted above, each of the ANGPTL3 RNAi agents dosed in this study included nucleotide sequences designed to target the ANGPTL3 gene at position 304. The injections were performed between the skin and muscle (i.e. subcutaneous injections) into the loose skin over the neck and shoulder area. Three (3) mice in each group were tested (n=3). Serum was collected on days 8, 15, 22, 29, and for some groups on day 36 (i.e., Groups 1, 2, and 9-13 only). Mice were fasted for four hours prior to each collection. ANGPTL3 protein levels in serum were measured by ELISA assay (R&D Systems), according to the manufacturer's recommendations. Triglycerides, total cholesterol, high-density lipoprotein (HDL), and low-density lipoprotein (LDL) in serum were measured on a Cobas® Integra 400 (Roche Diagnostics), according to the manufacturer's recommendations.
(§2) The ANGPTL3 protein levels, triglyceride levels, total cholesterol levels, HDL levels, and LDL levels for each animal were normalized. For normalization, the level of ANGPTL3 protein, triglyceride, HDL, and total cholesterol, respectively, for each animal at a time point, was divided by the pre-treatment level of expression in that animal (in this case at day −1) to determine the ratio of expression “normalized to pre-treatment.” Expression at a specific time point was then normalized to the D5W control group by dividing the “normalized to pre-treatment” ratio for an individual animal by the mean “normalized to pretreatment” ratio of all mice in the D5W control group.

ANGPTL3 gene [2] = experiment: Example 11: dose response, serum HDL in mice; type: in vivo, C57bl/6 mice
Experimental: as §1, with “dose response” for “in vivo activity”, “of” for “of further”, “agent AD05488,” for “agents that are designed to target position 304 on the ANGPTL3 gene,”, “the respective” for “0.5”, “dose” for “(mpk)”, “53:” for “47.”
The RNAi agent tested (AD05488) included a modified sequence and an N-acetyl-galactosamine-containing targeting ligand conjugated to the 5′ terminal end of the sense strand. (See Tables 3, 4, and 5 for modified sequences and targeting ligand structures). The injections were performed between the skin and muscle (i.e. subcutaneous injections) into the loose skin over the neck and shoulder area. Four (4) mice in each group were tested (n=4). Serum was collected on days 8, 15, 22, and 29. Mice were fasted for four hours prior to each collection. ANGPTL3 protein levels in serum were measured by ELISA assay (R&D Systems), according to the manufacturer's recommendations. Triglycerides, total cholesterol, high-density lipoprotein (HDL), and low-density lipoprotein (LDL) in serum were measured on a Cobas® Integra 400 (Roche Diagnostics), according to the manufacturer's recommendations.
as §2

## AD05488: RNAi agent duplex: antisense AM07235-AS, sense AM07234-SS (antisense mU*fA*mC*fUmGfAmUfCmAfAmAfUmAfUmGfUmUfGmAfG*mC; sense {NAG37}*[invAb]*mGmCmUmCmAmAmCmAfUfAfUmUmUmGmAmUmCmAmGmUmA*[invAb])
ANGPTL3 gene [1]; Day 8
  Average Total Cholesterol Normalized to Pre-Treatment and Control: 0.659
ANGPTL3 gene [1]; Day 15
  Average Total Cholesterol Normalized to Pre-Treatment and Control: 0.808
ANGPTL3 gene [1]; Day 22
  Average Total Cholesterol Normalized to Pre-Treatment and Control: 0.763
ANGPTL3 gene [1]; Day 29
  Average Total Cholesterol Normalized to Pre-Treatment and Control: 0.743
ANGPTL3 gene [1]; Day 36
  Average Total Cholesterol Normalized to Pre-Treatment and Control: 0.824
ANGPTL3 gene [2]; 0.05 mg/kg single sc day 1, Day 8
  Avg HDL Normalized to Pre-Treatment and Control: 0.851
ANGPTL3 gene [2]; 0.05 mg/kg single sc day 1, Day 15
  Avg HDL Normalized to Pre-Treatment and Control: 1.052
ANGPTL3 gene [2]; 0.05 mg/kg single sc day 1, Day 22
  Avg HDL Normalized to Pre-Treatment and Control: 0.982
ANGPTL3 gene [2]; 0.05 mg/kg single sc day 1, Day 29
  Avg HDL Normalized to Pre-Treatment and Control: 0.894
ANGPTL3 gene [2]; 0.1 mg/kg single sc day 1, Day 8
  Avg HDL Normalized to Pre-Treatment and Control: 0.807
ANGPTL3 gene [2]; 0.1 mg/kg single sc day 1, Day 15
  Avg HDL Normalized to Pre-Treatment and Control: 0.950
ANGPTL3 gene [2]; 0.1 mg/kg single sc day 1, Day 22
  Avg HDL Normalized to Pre-Treatment and Control: 0.806
ANGPTL3 gene [2]; 0.1 mg/kg single sc day 1, Day 29
  Avg HDL Normalized to Pre-Treatment and Control: 0.910
ANGPTL3 gene [2]; 0.5 mg/kg single sc day 1, Day 8
  Avg HDL Normalized to Pre-Treatment and Control: 0.727
ANGPTL3 gene [2]; 0.5 mg/kg single sc day 1, Day 15
  Avg HDL Normalized to Pre-Treatment and Control: 0.876
ANGPTL3 gene [2]; 0.5 mg/kg single sc day 1, Day 22
  Avg HDL Normalized to Pre-Treatment and Control: 0.906
ANGPTL3 gene [2]; 0.5 mg/kg single sc day 1, Day 29
  Avg HDL Normalized to Pre-Treatment and Control: 0.897
ANGPTL3 gene [2]; 1.0 mg/kg single sc day 1, Day 8
  Avg HDL Normalized to Pre-Treatment and Control: 0.575
ANGPTL3 gene [2]; 1.0 mg/kg single sc day 1, Day 15
  Avg HDL Normalized to Pre-Treatment and Control: 0.785
ANGPTL3 gene [2]; 1.0 mg/kg single sc day 1, Day 22
  Avg HDL Normalized to Pre-Treatment and Control: 0.839
ANGPTL3 gene [2]; 1.0 mg/kg single sc day 1, Day 29
  Avg HDL Normalized to Pre-Treatment and Control: 0.888
ANGPTL3 gene [2]; 2.5 mg/kg single sc day 1, Day 8
  Avg HDL Normalized to Pre-Treatment and Control: 0.618
ANGPTL3 gene [2]; 2.5 mg/kg single sc day 1, Day 15
  Avg HDL Normalized to Pre-Treatment and Control: 0.787
ANGPTL3 gene [2]; 2.5 mg/kg single sc day 1, Day 22
  Avg HDL Normalized to Pre-Treatment and Control: 0.782
ANGPTL3 gene [2]; 2.5 mg/kg single sc day 1, Day 29
  Avg HDL Normalized to Pre-Treatment and Control: 0.701
ANGPTL3 gene [2]; 5.0 mg/kg single sc day 1, Day 8
  Avg HDL Normalized to Pre-Treatment and Control: 0.534
ANGPTL3 gene [2]; 5.0 mg/kg single sc day 1, Day 15
  Avg HDL Normalized to Pre-Treatment and Control: 0.717
ANGPTL3 gene [2]; 5.0 mg/kg single sc day 1, Day 22
  Avg HDL Normalized to Pre-Treatment and Control: 0.760
ANGPTL3 gene [2]; 5.0 mg/kg single sc day 1, Day 29
  Avg HDL Normalized to Pre-Treatment and Control: 0.759
